# In ChEMBL document CHEMBL1156833, “The discovery of MK-0674, an orally bioavailable cathepsin K inhibitor” (Bioorg Med Chem Lett, 2010):
# System: Rattus norvegicus
# Assay: Metabolic stability in rat at 25 mg/kg, po after up to 24 hrs
# Assay type: ADME, organism-based
# Set-up: dose 25 mg/kg, route oral
# Settings: in vivo
row,Stability,Compound
1,Stable,CC(C)(F)C[C@H](N[C@@H](c1ccc(-c2ccc(C(=O)C(F)F)cc2)cc1)C(F)(F)F)C(=O)NC1(C#N)CC1
2,Stable,[2H][C@](O)(c1ccc(-c2ccc([C@H](N[C@@H](CC(C)(C)F)C(=O)NC3(C#N)CC3)C(F)(F)F)cc2)cc1)C(F)F
3,Stable,[2H][C@@](O)(c1ccc(-c2ccc([C@H](N[C@@H](CC(C)(C)F)C(=O)NC3(C#N)CC3)C(F)(F)F)cc2)cc1)C(F)F

# System: Hepatocyte
# Assay: (§1) Metabolic stability in rat hepatocytes assessed as formation ratio of (S)-N-(1-cyanocyclopropyl)-2-((S)-1-(4'-((R)-2,2-difluoro-1-hydroxyethyl)biphenyl-4-yl)-2,2,2-trifluoroethylamino)-4-fluoro-4-methylpentanamide to (S)-N-(1-cyanocyclopropyl)-2-((S)-1-(4'-((S)-2,2-difluoro-1-hydroxyethyl)biphenyl-4-yl)-2,2,2-trifluoroethylamino)-4-fluoro-4-methylpentanamide
# Assay type: ADME, cell-based
# Settings: not given
row,Ratio,Compound
1,24,CC(C)(F)C[C@H](N[C@@H](c1ccc(-c2ccc(C(=O)C(F)F)cc2)cc1)C(F)(F)F)C(=O)NC1(C#N)CC1

# System: Rattus norvegicus
# Assay: Metabolic stability in rat assessed as conversion to (S)-N-(1-cyanocyclopropyl)-2-((S)-1-(4'-((R)-2,2-difluoro-1-hydroxyethyl)biphenyl-4-yl)-2,2,2-trifluoroethylamino)-4-fluoro-4-methylpentanamide at 25 mg/kg, po
# Assay type: ADME, organism-based
# Set-up: dose 25 mg/kg, route oral
# Settings: in vivo
row,Stability,Compound
1,Unstable,[2H][C@](O)(c1ccc(-c2ccc([C@H](N[C@@H](CC(C)(C)F)C(=O)NC3(C#N)CC3)C(F)(F)F)cc2)cc1)C(F)F
2,Unstable,[2H][C@@](O)(c1ccc(-c2ccc([C@H](N[C@@H](CC(C)(C)F)C(=O)NC3(C#N)CC3)C(F)(F)F)cc2)cc1)C(F)F

# System: Canis familiaris
# Assay: Metabolic stability in dog at 25 mg/kg, po and 5 mg/kg, iv up to 24 hrs
# Assay type: ADME, organism-based, Canis lupus familiaris
# Settings: in vivo
row,Stability,Compound
1,Stable,CC(C)(F)C[C@H](N[C@@H](c1ccc(-c2ccc(C(=O)C(F)F)cc2)cc1)C(F)(F)F)C(=O)NC1(C#N)CC1
2,Stable,[2H][C@](O)(c1ccc(-c2ccc([C@H](N[C@@H](CC(C)(C)F)C(=O)NC3(C#N)CC3)C(F)(F)F)cc2)cc1)C(F)F
3,Stable,[2H][C@@](O)(c1ccc(-c2ccc([C@H](N[C@@H](CC(C)(C)F)C(=O)NC3(C#N)CC3)C(F)(F)F)cc2)cc1)C(F)F

# System: Rattus norvegicus
# Assay: Metabolic stability in rat at 25 mg/kg, po and 5 mg/kg, iv up to 24 hrs
# Assay type: ADME, organism-based
# Settings: in vivo
row,Stability,Compound
1,Stable,CC(C)(F)C[C@H](N[C@@H](c1ccc(-c2ccc(C(=O)C(F)F)cc2)cc1)C(F)(F)F)C(=O)NC1(C#N)CC1
2,Stable,[2H][C@](O)(c1ccc(-c2ccc([C@H](N[C@@H](CC(C)(C)F)C(=O)NC3(C#N)CC3)C(F)(F)F)cc2)cc1)C(F)F
3,Stable,[2H][C@@](O)(c1ccc(-c2ccc([C@H](N[C@@H](CC(C)(C)F)C(=O)NC3(C#N)CC3)C(F)(F)F)cc2)cc1)C(F)F

# System: not listed separately
# Assay: as §1, with “in rabbit” for “in rat”
# Assay type: ADME, cell-based, Oryctolagus cuniculus, Hepatocyte
# Settings: not given
row,Ratio,Compound
1,48,CC(C)(F)C[C@H](N[C@@H](c1ccc(-c2ccc(C(=O)C(F)F)cc2)cc1)C(F)(F)F)C(=O)NC1(C#N)CC1

# System: not listed separately
# Assay: as §1, with “in dog” for “in rat”
# Assay type: ADME, cell-based, Canis lupus familiaris, Hepatocyte
# Settings: not given
row,Ratio,Compound
1,5,CC(C)(F)C[C@H](N[C@@H](c1ccc(-c2ccc(C(=O)C(F)F)cc2)cc1)C(F)(F)F)C(=O)NC1(C#N)CC1

# System: Hepatocyte
# Assay: as §1, with “in human” for “in rat”
# Assay type: ADME, cell-based
# Settings: not given
row,Ratio,Compound
1,> 200,CC(C)(F)C[C@H](N[C@@H](c1ccc(-c2ccc(C(=O)C(F)F)cc2)cc1)C(F)(F)F)C(=O)NC1(C#N)CC1

# System: Canis familiaris
# Assay: (§2) Metabolic stability in dog assessed as formation ratio of (S)-N-(1-cyanocyclopropyl)-2-((S)-1-(4'-((R)-2,2-difluoro-1-hydroxyethyl)biphenyl-4-yl)-2,2,2-trifluoroethylamino)-4-fluoro-4-methylpentanamide to (S)-N-(1-cyanocyclopropyl)-2-((S)-1-(4'-((S)-2,2-difluoro-1-hydroxyethyl)biphenyl-4-yl)-2,2,2-trifluoroethylamino)-4-fluoro-4-methylpentanamide at 25 mg/kg, po and 5 mg/kg, iv
# Assay type: ADME, organism-based, Canis lupus familiaris
# Settings: in vivo
row,Ratio,Compound
1,5,CC(C)(F)C[C@H](N[C@@H](c1ccc(-c2ccc(C(=O)C(F)F)cc2)cc1)C(F)(F)F)C(=O)NC1(C#N)CC1

# System: Rattus norvegicus
# Assay: as §2, with “rat” for “dog”
# Assay type: ADME, organism-based
# Settings: in vivo
row,Ratio,Compound
1,> 10,CC(C)(F)C[C@H](N[C@@H](c1ccc(-c2ccc(C(=O)C(F)F)cc2)cc1)C(F)(F)F)C(=O)NC1(C#N)CC1
